Test results: BindingDB's records for doi:10.1186/1471-2091-15-9 (International Centre for Genetic Engineering and …, 2014)
Counter-ions that a name gives are not always drawn.

Molecular target: T1, DNA helicase [35-727] (Plasmodium falciparum, UniProt Q8I3W6)
T1 construct: 35-727
T1 sequence (Q8I3W6 whole entry): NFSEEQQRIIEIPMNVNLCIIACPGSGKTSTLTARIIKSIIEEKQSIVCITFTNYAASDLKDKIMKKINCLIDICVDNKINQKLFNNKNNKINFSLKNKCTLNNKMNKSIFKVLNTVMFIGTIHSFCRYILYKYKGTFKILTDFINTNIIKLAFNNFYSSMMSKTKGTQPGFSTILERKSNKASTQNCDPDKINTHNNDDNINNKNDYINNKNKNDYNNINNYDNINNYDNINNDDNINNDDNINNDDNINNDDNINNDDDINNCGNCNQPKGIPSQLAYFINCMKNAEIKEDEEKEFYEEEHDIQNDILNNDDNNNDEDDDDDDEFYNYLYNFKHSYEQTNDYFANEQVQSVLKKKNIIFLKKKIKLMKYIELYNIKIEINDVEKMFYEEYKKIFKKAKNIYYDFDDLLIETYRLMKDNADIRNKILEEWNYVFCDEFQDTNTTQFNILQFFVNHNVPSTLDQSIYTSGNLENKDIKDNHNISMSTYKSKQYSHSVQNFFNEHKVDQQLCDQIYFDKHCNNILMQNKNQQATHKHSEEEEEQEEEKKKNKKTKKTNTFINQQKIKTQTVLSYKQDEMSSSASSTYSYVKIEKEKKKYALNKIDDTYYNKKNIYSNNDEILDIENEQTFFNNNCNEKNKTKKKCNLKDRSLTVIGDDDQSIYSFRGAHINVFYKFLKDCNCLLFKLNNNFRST
Experiment: DNA-Dependent ATPase Assay
Conditions: pH 8; 37 °C
Experimental: The hydrolysis of ATP catalyzed by PfUDN was assayed by measuring the formation of Pi from [γ-32P] ATP. The reaction mixture of 10 μl contained [γ-32P] ATP (specific activity 222 TBq. mmol^−1) and cold ATP (1 mM), ATPase buffer (20 mM Tris-HCl, pH 8.0, 8 mM DTT, 1.0 mM MgCl2, 20 mM KCl and 16 μg/ml BSA), purified PfUDN and 50 ng or 100 ng of M13 mp19 ssDNA. The reaction mixtures were incubated at 37°C for 60 min.

Compound	IC50
CC[n+]1c(-c2ccccc2)c2cc(N)ccc2c2ccc(N)cc21 [AB00053825_07]	3.1 µM
COc1cccc2c1C(=O)c1c(O)c3c(c(O)c1C2=O)C[C@@](O)(C(C)=O)C[C@@H]3O[C@H]1C[C@H](N)[C@H](O)[C@H](C)O1 [(7S,9S)-9-acetyl-7-[(2R,4S,5S,6S)-4-amino-5-hydroxy-6-methyloxan-2-yl]oxy-6,9,11-trihydroxy-4-methoxy-8,10-dihydro-7H-tetracene-5,12-dione;hydrochloride]	4.4 µM
